System: MV-4-11 cells
Test: Gene expression microarray analysis (Affymetrix PrimeView) and GSEA
Format: cell-based, human
Parameters: RFU PODN (11730768_x_at) / Fold change /veh PODN (11730768_x_at) / RFU LINC00158 (11744669_a_at) / Fold change /veh LINC00158 (11744669_a_at) / RFU DUSP10 (11751237_a_at) / Fold change /veh DUSP10 (11751237_a_at) / RFU ID3 (11757404_x_at) / Fold change /veh ID3 (11757404_x_at) / RFU PLEKHG5 (11737974_s_at) / Fold change /veh PLEKHG5 (11737974_s_at) / RFU LRRC4B (11730491_at) / Fold change /veh LRRC4B (11730491_at) / RFU GIMAP4 (11747438_a_at) / Fold change /veh GIMAP4 (11747438_a_at) / RFU KRT8 (11758183_x_at) / Fold change /veh KRT8 (11758183_x_at) / RFU CNN1 (11734310_a_at) / Fold change /veh CNN1 (11734310_a_at) / RFU VPS37D (11726825_at) / Fold change /veh VPS37D (11726825_at) / RFU C10orf10 (11716522_x_at) / Fold change /veh C10orf10 (11716522_x_at) / RFU KIR2DL2 /// KIR2DL4 /// KIR2DL5A /// KIR2DL5B /// KIR2DS1 /// KIR2DS2 /// KIR2DS3 /// KIR2DS4 /// KIR3DL3 /// KIR3DL3 /// KIR3DS1 (11738374_at) / Fold change /veh KIR2DL2 /// KIR2DL4 /// KIR2DL5A /// KIR2DL5B /// KIR2DS1 /// KIR2DS2 /// KIR2DS3 /// KIR2DS4 /// KIR3DL3 /// KIR3DL3 /// KIR3DS1 (11738374_at) / RFU C1QL1 (11718748_at) / Fold change /veh C1QL1 (11718748_at) / RFU TMPRSS4 (11747572_a_at) / Fold change /veh TMPRSS4 (11747572_a_at) / RFU HAMP (11756126_x_at) / Fold change /veh HAMP (11756126_x_at) / RFU RNFT2 (11725882_a_at) / Fold change /veh RNFT2 (11725882_a_at) / RFU NR4A2 (11747474_a_at) / Fold change /veh NR4A2 (11747474_a_at) / RFU ABCC12 (11746883_a_at) / Fold change /veh ABCC12 (11746883_a_at) / RFU TMEM136 (11760407_x_at) / Fold change /veh TMEM136 (11760407_x_at) / RFU CLDN22 /// WWC2 (11732394_at) / Fold change /veh CLDN22 /// WWC2 (11732394_at) / RFU HLA-DPB1 (11760878_x_at) / Fold change /veh HLA-DPB1 (11760878_x_at) / RFU SPINT1 (11716480_a_at) / Fold change /veh SPINT1 (11716480_a_at) / RFU GAP43 (11754022_s_at) / Fold change /veh GAP43 (11754022_s_at) / RFU A4GNT (11735810_at) / Fold change /veh A4GNT (11735810_at) / RFU PRB3 (11715151_x_at) / Fold change /veh PRB3 (11715151_x_at) / RFU TUBB4B (11761932_at) / Fold change /veh TUBB4B (11761932_at) / RFU CAPN14 (11732068_a_at) / Fold change /veh CAPN14 (11732068_a_at) / RFU TMCC2 (11721928_a_at) / Fold change /veh TMCC2 (11721928_a_at) / RFU IRGQ (11745062_a_at) / Fold change /veh IRGQ (11745062_a_at) / RFU FAM174B (11720279_a_at) / Fold change /veh FAM174B (11720279_a_at) / RFU TMPRSS4 (11748680_a_at) / Fold change /veh TMPRSS4 (11748680_a_at) / RFU FAM212B (11763350_a_at) / Fold change /veh FAM212B (11763350_a_at) / RFU PLEKHG5 (11743358_a_at) / Fold change /veh PLEKHG5 (11743358_a_at) / RFU ZSCAN30 (11745921_a_at) / Fold change /veh ZSCAN30 (11745921_a_at) / RFU CMKLR1 (11741424_a_at) / Fold change /veh CMKLR1 (11741424_a_at) / RFU LOC101060620 /// MAPK8IP1 (11723275_at) / Fold change /veh LOC101060620 /// MAPK8IP1 (11723275_at) / RFU SPTSSB (11747773_x_at) / Fold change /veh SPTSSB (11747773_x_at) / RFU PRSS12 (11739890_at) / Fold change /veh PRSS12 (11739890_at) / RFU BIN1 (11741810_x_at) / Fold change /veh BIN1 (11741810_x_at) / RFU WNT11 (11732464_a_at) / Fold change /veh WNT11 (11732464_a_at) / RFU C10orf10 (11716521_a_at) / Fold change /veh C10orf10 (11716521_a_at) / RFU C5orf56 (11738089_at) / Fold change /veh C5orf56 (11738089_at) / RFU CYB561 (11721691_x_at) / Fold change /veh CYB561 (11721691_x_at) / RFU ANKRD19P (11752326_a_at) / Fold change /veh ANKRD19P (11752326_a_at) / RFU OR2T12 /// OR2T33 /// OR2T8 (11738714_s_at) / Fold change /veh OR2T12 /// OR2T33 /// OR2T8 (11738714_s_at) / RFU VCAN (11748164_a_at) / Fold change /veh VCAN (11748164_a_at) / RFU JSRP1 (11732532_at) / Fold change /veh JSRP1 (11732532_at) / RFU KRTAP10-11 (11738290_x_at) / Fold change /veh KRTAP10-11 (11738290_x_at) / RFU MYO3A (11730013_a_at) / Fold change /veh MYO3A (11730013_a_at) / RFU EBF3 (11725865_a_at) / Fold change /veh EBF3 (11725865_a_at) / RFU CAMK2N1 (11719241_x_at) / Fold change /veh CAMK2N1 (11719241_x_at) / RFU C5orf56 (11738088_a_at) / Fold change /veh C5orf56 (11738088_a_at) / RFU OLFML3 (11715873_a_at) / Fold change /veh OLFML3 (11715873_a_at) / RFU LOC100653217 /// NTM (11731650_a_at) / Fold change /veh LOC100653217 /// NTM (11731650_a_at) / RFU MAPK11 (11762145_a_at) / Fold change /veh MAPK11 (11762145_a_at) / RFU FIZ1 (11724087_x_at) / Fold change /veh FIZ1 (11724087_x_at) / RFU OASL (11726364_x_at) / Fold change /veh OASL (11726364_x_at) / RFU SOX15 (11748057_x_at) / Fold change /veh SOX15 (11748057_x_at) / RFU CD79A (11719716_a_at) / Fold change /veh CD79A (11719716_a_at) / RFU HIST1H1D (11736915_at) / Fold change /veh HIST1H1D (11736915_at) / RFU CASKIN2 (11723855_a_at) / Fold change /veh CASKIN2 (11723855_a_at) / RFU LOC730098 (11760151_x_at) / Fold change /veh LOC730098 (11760151_x_at) / RFU OR4N2 (11742367_at) / Fold change /veh OR4N2 (11742367_at) / RFU PRRT2 (11749266_a_at) / Fold change /veh PRRT2 (11749266_a_at) / RFU SNX32 (11753110_a_at) / Fold change /veh SNX32 (11753110_a_at) / RFU CDHR5 (11726645_a_at) / Fold change /veh CDHR5 (11726645_a_at) / RFU RCAN1 (11760418_a_at) / Fold change /veh RCAN1 (11760418_a_at) / RFU FAM167A (11723789_a_at) / Fold change /veh FAM167A (11723789_a_at) / RFU FAM26E (11764081_at) / Fold change /veh FAM26E (11764081_at) / RFU ISYNA1 (11749810_s_at) / Fold change /veh ISYNA1 (11749810_s_at) / RFU ACY1 (11761880_at) / Fold change /veh ACY1 (11761880_at) / RFU 11764098_at / Fold change /veh 11764098_at / RFU SAMD14 (11745864_x_at) / Fold change /veh SAMD14 (11745864_x_at) / RFU NPB (11741838_a_at) / Fold change /veh NPB (11741838_a_at) / RFU TMPRSS6 (11731388_a_at) / Fold change /veh TMPRSS6 (11731388_a_at) / RFU KRTAP10-2 (11738614_at) / Fold change /veh KRTAP10-2 (11738614_at) / RFU ARHGAP8 /// PRR5-ARHGAP8 (11727945_x_at) / Fold change /veh ARHGAP8 /// PRR5-ARHGAP8 (11727945_x_at) / RFU KRTAP5-7 /// NADSYN1 (11734609_at) / Fold change /veh KRTAP5-7 /// NADSYN1 (11734609_at) / RFU RASL12 (11751679_a_at) / Fold change /veh RASL12 (11751679_a_at) / RFU CDKN2B (11736163_a_at) / Fold change /veh CDKN2B (11736163_a_at) / RFU PRF1 (11729649_at) / Fold change /veh PRF1 (11729649_at) / RFU, ZNF638 /// ZNF638-IT1 / Fold change vs veh, ZNF638 /// ZNF638-IT1 / RFU, PANK3 / Fold change vs veh, PANK3 / RFU, SH3YL1 / Fold change vs veh, SH3YL1 / RFU, ZEB2 / Fold change vs veh, ZEB2 / RFU, NRIP1 / Fold change vs veh, NRIP1 / RFU, PTTG1IP / Fold change vs veh, PTTG1IP / RFU, CAPN2 / Fold change vs veh, CAPN2 / RFU, MED14 / Fold change vs veh, MED14 / RFU, SNORA58 / Fold change vs veh, SNORA58 / RFU, C1orf63 / Fold change vs veh, C1orf63 / RFU, LRRFIP1 / Fold change vs veh, LRRFIP1 / RFU, NDUFAF7 / Fold change vs veh, NDUFAF7 / RFU, SLC12A2 / Fold change vs veh, SLC12A2 / RFU, IBTK / Fold change vs veh, IBTK / RFU, ESF1 / Fold change vs veh, ESF1 / Fold change vs veh, TMEM50B / RFU, TAOK1 / Fold change vs veh, TAOK1 / RFU, ACBD3 / Fold change vs veh, ACBD3 / RFU, TMA16 / Fold change vs veh, TMA16 / RFU, RWDD3 / Fold change vs veh, RWDD3 / RFU, BCAT1 / Fold change vs veh, BCAT1 / RFU, EDEM3 / Fold change vs veh, EDEM3 / RFU, TMEM33 / Fold change vs veh, TMEM33 / RFU, WDR75 / Fold change vs veh, WDR75 / RFU, AHCTF1 / Fold change vs veh, AHCTF1 / RFU, TFRC / Fold change vs veh, TFRC / RFU, ZDHHC17 / Fold change vs veh, ZDHHC17 / RFU, NOM1 / Fold change vs veh, NOM1 / RFU, ARL8B / Fold change vs veh, ARL8B / RFU, ZBTB11 / Fold change vs veh, ZBTB11 / RFU, TAMM41 / Fold change vs veh, TAMM41 / RFU, KIAA1704 /// LOC100996395 / Fold change vs veh, KIAA1704 /// LOC100996395 / RFU, ING1 / Fold change vs veh, ING1 / RFU, TRMT61B / Fold change vs veh, TRMT61B / RFU, FUBP3 / Fold change vs veh, FUBP3 / RFU, TP53 / Fold change vs veh, TP53 / RFU, TNKS2 / Fold change vs veh, TNKS2 / RFU, ZFP14 / Fold change vs veh, ZFP14 / RFU, ACTR2 / Fold change vs veh, ACTR2 / RFU, PPP3R1 / Fold change vs veh, PPP3R1 / RFU, PIK3R1 / Fold change vs veh, PIK3R1 / RFU, HNRNPA1 / Fold change vs veh, HNRNPA1 / RFU, RNF170 / Fold change vs veh, RNF170 / RFU, ZNF28 / Fold change vs veh, ZNF28 / RFU, RNGTT / Fold change vs veh, RNGTT / RFU, OGT / Fold change vs veh, OGT / RFU, BRD1 / Fold change vs veh, BRD1 / RFU, MARS / Fold change vs veh, MARS / RFU, ZNF655 / Fold change vs veh, ZNF655 / RFU, FAHD1 / Fold change vs veh, FAHD1 / RFU, BDP1 / Fold change vs veh, BDP1 / RFU, LRRCC1 / Fold change vs veh, LRRCC1 / RFU, ARID1A / Fold change vs veh, ARID1A / RFU, ZNF146 / Fold change vs veh, ZNF146 / RFU, ZNF330 / Fold change vs veh, ZNF330 / RFU, GPN3 / Fold change vs veh, GPN3 / RFU, C9orf123 / Fold change vs veh, C9orf123 / RFU, N4BP2L2 / Fold change vs veh, N4BP2L2 / RFU, ARFIP1 / Fold change vs veh, ARFIP1 / RFU, FAM179B / Fold change vs veh, FAM179B / RFU, BCL10 / Fold change vs veh, BCL10 / RFU, UHRF1BP1L / Fold change vs veh, UHRF1BP1L / RFU, BET1 / Fold change vs veh, BET1 / RFU, CNOT2 / Fold change vs veh, CNOT2 / RFU, ZNF268 / Fold change vs veh, ZNF268 / Fold change vs veh, ZNF507 / RFU, DGCR2 / Fold change vs veh, DGCR2 / RFU, WDSUB1 / Fold change vs veh, WDSUB1 / Fold change vs veh, HSP90B1 /// MIR3652 / RFU, ADSS / Fold change vs veh, ADSS / RFU, GK / Fold change vs veh, GK / RFU, ZNF148 / Fold change vs veh, ZNF148 / RFU, TAF9 / Fold change vs veh, TAF9 / RFU, SLC1A5 / Fold change vs veh, SLC1A5 / RFU, SLMO2 / Fold change vs veh, SLMO2 / RFU, ABCC4 / Fold change vs veh, ABCC4 / RFU, LOC101060439 /// RAP1B / Fold change vs veh, LOC101060439 /// RAP1B / RFU, RFX7 / Fold change vs veh, RFX7 / RFU, GTPBP10 / Fold change vs veh, GTPBP10 / RFU, CNEP1R1 / Fold change vs veh, CNEP1R1 / RFU, BIVM-ERCC5 /// ERCC5 / Fold change vs veh, BIVM-ERCC5 /// ERCC5 / RFU, ILF3 / Fold change vs veh, ILF3 / RFU 11762660_at / Fold change /veh 11762660_at / RFU VCAN (11757783_s_at) / Fold change /veh VCAN (11757783_s_at) / RFU DDX43 (11728927_at) / Fold change /veh DDX43 (11728927_at) / RFU KRT8 (11758188_x_at) / Fold change /veh KRT8 (11758188_x_at) / RFU NKD1 (11759106_at) / Fold change /veh NKD1 (11759106_at) / RFU SRD5A1 (11742802_a_at) / Fold change /veh SRD5A1 (11742802_a_at) / RFU TPSAB1 /// TPSB2 (11721975_s_at) / Fold change /veh TPSAB1 /// TPSB2 (11721975_s_at) / RFU GSTM3 (11746129_a_at) / Fold change /veh GSTM3 (11746129_a_at) / RFU IL23R (11737362_x_at) / Fold change /veh IL23R (11737362_x_at) / RFU TMEM51 (11727254_a_at) / Fold change /veh TMEM51 (11727254_a_at) / RFU PIWIL2 (11732686_x_at) / Fold change /veh PIWIL2 (11732686_x_at) / RFU ORM1 (11744905_x_at) / Fold change /veh ORM1 (11744905_x_at) / RFU CCDC152 (11743942_at) / Fold change /veh CCDC152 (11743942_at) / RFU ECM1 (11717891_a_at) / Fold change /veh ECM1 (11717891_a_at) / RFU IL23R (11748794_a_at) / Fold change /veh IL23R (11748794_a_at) / RFU TNFAIP8L3 (11732012_x_at) / Fold change /veh TNFAIP8L3 (11732012_x_at) / RFU MBOAT4 (11741988_at) / Fold change /veh MBOAT4 (11741988_at) / RFU 11764193_at / Fold change /veh 11764193_at / RFU TMEM53 (11763286_at) / Fold change /veh TMEM53 (11763286_at) / RFU MAGEB2 (11727129_at) / Fold change /veh MAGEB2 (11727129_at) / RFU TMEM200A (11744735_a_at) / Fold change /veh TMEM200A (11744735_a_at) / RFU CCDC152 (11751479_a_at) / Fold change /veh CCDC152 (11751479_a_at) / RFU FAM211A (11726209_a_at) / Fold change /veh FAM211A (11726209_a_at) / RFU RGS16 (11746705_a_at) / Fold change /veh RGS16 (11746705_a_at) / RFU VCAN (11755009_s_at) / Fold change /veh VCAN (11755009_s_at) / RFU RHOB (11743442_s_at) / Fold change /veh RHOB (11743442_s_at) / RFU RGS16 (11720943_a_at) / Fold change /veh RGS16 (11720943_a_at) / RFU RGS16 (11720944_at) / Fold change /veh RGS16 (11720944_at) / RFU, VPS4B / Fold change vs veh, VPS4B / RFU, CREB1 / Fold change vs veh, CREB1 / RFU, DNAJC13 / Fold change vs veh, DNAJC13 / RFU, GNAQ / Fold change vs veh, GNAQ / RFU, CDK5R1 / Fold change vs veh, CDK5R1 / RFU, ZRANB3 / Fold change vs veh, ZRANB3 / RFU, CUL4A / Fold change vs veh, CUL4A / RFU, CCNY / Fold change vs veh, CCNY / RFU, UFL1 / Fold change vs veh, UFL1 / RFU, COG3 / Fold change vs veh, COG3 / RFU, DIAPH2 / Fold change vs veh, DIAPH2 / RFU, SKA2 / Fold change vs veh, SKA2 / RFU, AFF3 / Fold change vs veh, AFF3 / RFU, LMF1 / Fold change vs veh, LMF1 / RFU, IPO11 / Fold change vs veh, IPO11 / RFU, DFFB / Fold change vs veh, DFFB / RFU, FOXP1 / Fold change vs veh, FOXP1 / RFU, CARD8 / Fold change vs veh, CARD8 / RFU, STRN3 / Fold change vs veh, STRN3 / RFU, ADK / Fold change vs veh, ADK / RFU, RASSF2 / Fold change vs veh, RASSF2 / RFU, WIPF1 / Fold change vs veh, WIPF1 / RFU, LARP1B / Fold change vs veh, LARP1B / RFU, RASA1 / Fold change vs veh, RASA1 / RFU, RB1 / Fold change vs veh, RB1 / RFU, PPFIA1 / Fold change vs veh, PPFIA1 / RFU, MAT2A / Fold change vs veh, MAT2A / RFU, CCT5 / Fold change vs veh, CCT5 / RFU, WDR92 / Fold change vs veh, WDR92 / RFU, CUX1 / Fold change vs veh, CUX1 / RFU, TTC7A / Fold change vs veh, TTC7A / RFU, TMEM135 / Fold change vs veh, TMEM135 / RFU, DEPTOR / Fold change vs veh, DEPTOR / RFU, CPM / Fold change vs veh, CPM / RFU, DNAJB6 / Fold change vs veh, DNAJB6 / RFU, CACNA2D3 / Fold change vs veh, CACNA2D3 / RFU, DTX4 / Fold change vs veh, DTX4 / RFU, TFCP2 / Fold change vs veh, TFCP2 / RFU, GMCL1 /// GMCL1P1 / Fold change vs veh, GMCL1 /// GMCL1P1 / RFU, AEBP2 / Fold change vs veh, AEBP2 / RFU, SNHG1 /// SNORD22 /// SNORD25 /// SNORD26 /// SNORD27 /// SNORD28 /// SNORD29 /// SNORD31 / Fold change vs veh, SNHG1 /// SNORD22 /// SNORD25 /// SNORD26 /// SNORD27 /// SNORD28 /// SNORD29 /// SNORD31 / Fold change (Aza/veh), C12orf56 (ProbeSet 11735607_a_at) / Fold change (ACY-1035/veh), C12orf56 (ProbeSet 11735607_a_at) / Fold change (Aza/veh), FGFR1OP (ProbeSet 11751329_s_at) / Fold change (ACY-1035/veh), FGFR1OP (ProbeSet 11751329_s_at) / Fold change (Aza/veh), VPS36 (ProbeSet 11739960_a_at) / Fold change (ACY-1035/veh), VPS36 (ProbeSet 11739960_a_at) / RFU SYPL1 (11715823_x_at) / Fold change /veh SYPL1 (11715823_x_at) / RFU IGFBP7 (11715501_s_at) / Fold change /veh IGFBP7 (11715501_s_at) / RFU REEP3 (11722064_at) / Fold change /veh REEP3 (11722064_at) / RFU IGLL1 (11728026_x_at) / Fold change /veh IGLL1 (11728026_x_at): dose or concentration left out as unconfirmed
Conditions: ProbeSet 11741070_a_at; LIST B

Compound: Nc1ccc(-c2cccs2)cc1NC(=O)c1ccc2c(c1)cc(C1CC1)n2CCN1CCOCC1 [ACY-1035]
- Fold change vs veh, ZNF146: 0.99
